Converted amounts (≈) assume the structure as drawn. The source made the active and inactive calls. The rule behind the calls is not given here.
Key:
[1] = test system: Pseudomonas aeruginosa; test: Antibacterial activity against Pseudomonas aeruginosa ATCC 27853 after 18 hrs by CLSI based broth microdilution method; format: functional; details: ATCC 27853, 18 h
[2] = test system: Escherichia coli; test: Antibiofilm activity against Escherichia coli ATCC 25922 at 2 times MIC after 24 hrs by crystal violet staining based assay; format: functional, organism-based
[3] = test system: Klebsiella pneumoniae; test: Antibacterial activity against Klebsiella pneumoniae ATCC 700603 after 18 hrs by CLSI based broth microdilution method; format: functional; details: Klebsiella pneumoniae, 700603, 18 h
[4] = test system: Staphylococcus aureus; test: Antibacterial activity against Staphylococcus aureus ATCC 25923 after 18 hrs by CLSI based broth microdilution method; format: functional; details: ATCC 25923, 18 h
[5] = test system: Staphylococcus aureus; test: Ratio of antibacterial activity against Staphylococcus aureus ATCC 25923 in presence of MgCl2 to antibacterial activity against Staphylococcus aureus ATCC 25923; format: functional
[6] = test system: Escherichia coli; test: Disruption of membrane integrity in Escherichia coli ATCC 25922 assessed as membrane damage by measuring PI fluorescence incubated for 1 hr by PI dye based flow cytometric analysis; format: functional, organism-based
[7] = test system: Pseudomonas aeruginosa; test: Antibiofilm activity against Pseudomonas aeruginosa ATCC 27853 after 24 hrs by crystal violet staining based assay; format: functional, organism-based
[8] = test system: Escherichia coli; test: Ratio of antibacterial activity against Escherichia coli ATCC 25922 in presence of KCl to antibacterial activity against Escherichia coli ATCC 25922; format: functional
[9] = test system: Escherichia coli; test: Induction of membrane disruption in Escherichia coli ATCC 25922 assessed as rough membrane surface at 4 times of MIC after 2 hrs by SEM analysis; format: functional, organism-based
[10] = test system: Escherichia coli; test: Disruption of membrane integrity in Escherichia coli ATCC 25922 assessed as membrane damage by measuring PI fluorescence at 2 times of MIC incubated for 1 hr by PI dye based flow cytometric analysis (reference value: 1.35%); format: functional
[11] = test system: Escherichia coli; test: Induction of inner membrane permeabilization in Escherichia coli ATCC 43837 assessed as increase in ONPG release at 1 to 2 times of MIC by ONPG dye based assay; format: organism-based
[12] = test system: Escherichia coli; test: Induction of membrane disruption in Escherichia coli ATCC 25922 assessed as degeneration in membrane at 4 times of MIC after 2 hrs by SEM analysis; format: functional, organism-based
[13] = test system: Escherichia coli; test: Induction of outer membrane permeabilization in Escherichia coli ATCC 25922 measured up to 12 mins by NPN-dye based assay; format: organism-based
[14] = test system: Staphylococcus aureus; test: Ratio of antibacterial activity against Staphylococcus aureus ATCC 25923 in presence of NaCl to antibacterial activity against Staphylococcus aureus ATCC 25923; format: functional
[15] = test system: Pseudomonas aeruginosa; test: Potentiation of polymyxin B-induced antibacterial activity against Pseudomonas aeruginosa ATCC 27853 assessed as FICI after 18 hrs by checker board assay; format: functional
[16] = test system: Pseudomonas aeruginosa; test: Antibiofilm activity against Pseudomonas aeruginosa ATCC 27853 at 0.25 to 2 times of MIC after 24 hrs by crystal violet staining based assay; format: functional, organism-based
[17] = test system: Escherichia coli; test: Potentiation of rifampicin-induced antibacterial activity against Escherichia coli ATCC 25922 assessed as FICI after 18 hrs by checker board assay; format: functional
[18] = test system: Escherichia coli; test: Disruption of membrane integrity in Escherichia coli ATCC 25922 assessed as membrane damage by measuring PI fluorescence at 4 times of MIC incubated for 1 hr by PI dye based flow cytometric analysis (reference value: 1.35%); format: functional
[19] = test system: Staphylococcus aureus; test: Antibacterial activity against methicillin-resistant Staphylococcus aureus 936 after 18 hrs by CLSI based broth microdilution method; format: functional; details: Staphylococcus aureus, 936, 18 h
[20] = test system: Escherichia coli; test: Induction of membrane disruption in Escherichia coli ATCC 25922 assessed as corrugated membrane surface at 4 times of MIC after 2 hrs by SEM analysis; format: functional, organism-based
[21] = test system: Escherichia coli; test: Antimicrobial activity against Escherichia coli ATCC 25922 at 1 mM preincubated for 6 hrs in presence of 2000 ug/ml trypsin and measured after 18 hrs by microplate reader analysis; format: functional, organism-based
[22] = Selectivity index, ratio of MHC10 for human RBC to geometric mean of peptide MIC for gram negative bacteria; format: toxicity; details: human red blood cells, read-out: Selectivity Index
[23] = test system: Escherichia coli; test: Potentiation of polymyxin B-induced antibacterial activity against Escherichia coli ATCC 25922 assessed as FICI after 18 hrs by checker board assay; format: functional
[24] = test system: Escherichia coli; test: Induction of inner membrane permeabilization in Escherichia coli ATCC 43837 assessed as increase in ONPG release at 4 times of MIC by ONPG dye based assay; format: organism-based
[25] = test system: Escherichia coli; test: Induction of ROS generation in Escherichia coli ATCC 25922; format: functional, organism-based
[26] = test system: Bacillus subtilis; test: Antibacterial activity against Bacillus subtilis ATCC 23857 after 18 hrs by CLSI based broth microdilution method; format: functional; details: ATCC 23857, 18 h
[27] = test system: Staphylococcus aureus; test: Antibiofilm activity against Staphylococcus aureus ATCC 25923 after 24 hrs by crystal violet staining based assay; format: functional, organism-based
[28] = test system: Escherichia coli; test: Ratio of antibacterial activity against Escherichia coli ATCC 25922 in presence of NaCl to antibacterial activity against Escherichia coli ATCC 25922; format: functional
[29] = test system: Escherichia coli; test: Antibacterial activity against Escherichia coli ATCC 43837 after 18 hrs by CLSI based broth microdilution method; format: functional; details: ATCC 43837, 18 h
[30] = test system: Erythrocyte; test: Hemolytic activity in human RBC measured after 1 hr by microplate reader analysis; format: ADME, cell-based
[31] = test system: Klebsiella pneumoniae; test: Potentiation of polymyxin B-induced antibacterial activity against Klebsiella pneumoniae ATCC 700603 assessed as FICI after 18 hrs by checker board assay; format: functional
[32] = test system: DNA; test: Binding affinity to Escherichia coli ATCC 25922 genomic DNA after 30 mins by agarose gel electrophoresis; format: nucleic-acid assay
[33] = test system: Staphylococcus aureus; test: Ratio of antibacterial activity against Staphylococcus aureus ATCC 25923 in presence of KCl to antibacterial activity against Staphylococcus aureus ATCC 25923; format: functional
[34] = test system: Escherichia coli; test: Antibiofilm activity against Escherichia coli ATCC 25922 after 24 hrs by crystal violet staining based assay; format: functional, organism-based
[35] = test system: Escherichia coli; test: Ratio of antibacterial activity against Escherichia coli ATCC 25922 in presence of FeCl3 to antibacterial activity against Escherichia coli ATCC 25922; format: functional
[36] = test system: Escherichia coli; test: Antibacterial activity against Escherichia coli ATCC 25922 after 18 hrs by CLSI based broth microdilution method; format: functional; details: ATCC 25922, 18 h
[37] = test system: Escherichia coli; test: Ratio of MIC for Escherichia coli ATCC 25922 preincubated for 6 hrs in presence of 10% mouse serum and measured after 18 hrs to MIC for antibacterial activity against Escherichia coli ATCC 25922 after 18 hrs; format: functional
[38] = Selectivity index, ratio of MHC10 for human RBC to geometric mean of peptide MIC for gram positive bacteria; format: toxicity; details: human red blood cells, read-out: Selectivity Index
[39] = test system: Pseudomonas aeruginosa; test: Potentiation of rifampicin-induced antibacterial activity against Pseudomonas aeruginosa ATCC 27853 assessed as FICI after 18 hrs by checker board assay; format: functional
[40] = test system: Escherichia coli; test: Ratio of antibacterial activity against Escherichia coli ATCC 25922 in presence of MgCl2 to antibacterial activity against Escherichia coli ATCC 25922; format: functional
[41] = test system: Staphylococcus aureus; test: Ratio of antibacterial activity against Staphylococcus aureus ATCC 25923 in presence of FeCl3 to antibacterial activity against Staphylococcus aureus ATCC 25923; format: functional

## CCCCCCCCCC(=O)NC(Cc1cn(CCCC[C@H](NC(C)=O)C(=O)NCC(=O)N[C@@H](CC(C)C)C(=O)N[C@@H](CC(C)C)C(=O)N[C@H](CCCCN)C(=O)N[C@@H](CCCNC(=N)N)C(=O)N[C@H](C(=O)N[C@H](CCCCN)C(=O)N[C@H](C(=O)N[C@@H](CC(C)C)C(=O)N[C@@H](CC(C)C)C(N)=O)[C@@H](C)O)[C@@H](C)CC)nn1)C(=O)NCC(=O)N[C@@H](CC(C)C)C(=O)N[C@@H](CC(C)C)C(=O)N[C@H](CCCCN)C(=O)N[C@@H](CCCNC(=N)N)C(=O)N[C@H](C(=O)N[C@H](CCCCN)C(=O)N[C@H](C(=O)N[C@@H](CC(C)C)C(=O)N[C@@H](CC(C)C)C(N)=O)[C@@H](C)O)[C@@H](C)CC (stereo partly specified)
[1]
  MIC: 8 µM (≈ 22 µg/mL)
[2]
  inhibition: Active
[3]
  MIC: 16 µM (≈ 44 µg/mL)
[4]
  MIC: 8 µM (≈ 22 µg/mL)
[5]
  Ratio: 2 - 4
[6]
  Activity: Dose-dependent effect
[7]
  inhibition: Dose-dependent effect
[8]
  Ratio: 2 - 4
[9]
  Activity: Active
[10]
  Activity: 56.3%
[11]
  Activity: Active
[12]
  Activity: Active
[13]
  Activity: Dose-dependent effect
[14]
  Ratio: 2 - 4
[15]
  fractional inhibitory concentration index (FICI): 0.25
[16]
  inhibition: Active
[17]
  fractional inhibitory concentration index (FICI): 0.3125
[18]
  Activity: 82.3%
[19]
  MIC: 16 µM (≈ 44 µg/mL)
[20]
  Activity: Active
[21]
  Activity: Active
[22]
  selectivity ratio: 3.2
[23]
  fractional inhibitory concentration index (FICI): 0.3125
[24]
  Activity: Active
[25]
  Activity: inactive
[26]
  MIC: 2 µM (≈ 5.51 µg/mL)
[27]
  inhibition: Dose-dependent effect
[28]
  Ratio: 2 - 4
[29]
  MIC: 8 µM (≈ 22 µg/mL)
[30]
  MHC10: 32 µM
[31]
  fractional inhibitory concentration index (FICI): 0.5625
[32]
  Activity: Dose-dependent effect
[33]
  Ratio: 2 - 4
[34]
  inhibition: Dose-dependent effect
[35]
  Ratio: 2 - 4
[36]
  MIC: 8 µM (≈ 22 µg/mL)
[37]
  Ratio: 2
[38]
  selectivity ratio: 3.69
[39]
  fractional inhibitory concentration index (FICI): 0.5625
[40]
  Ratio: 2 - 4
[41]
  Ratio: 2 - 4

Source: ChEMBL document CHEMBL4359906, “Design and synthesis of new N-terminal fatty acid modified-antimicrobial peptide analogues with potent in vitro biological activity” (Eur J Med Chem, 2019)
